According to patent US20240269067A1 (GEL4MED, INC., priority 2020, published 2024):

Assay: Net charge and isoelectric point of peptide
Assay type: physicochemical
Conditions: pH 7
From the text: The peptide may be purified. For example, the peptide may be lyophilized. […] Other peptides are within the scope of the disclosure.
Exemplary peptides having a charge of +5 to +9 include […](d)[…], […](d)[…], and […](d)[…]. In other embodiments, the purified peptide may be substantially neutral. […] Net charge may be selected by peptide design. Design of electrostatic charge in the peptide hydrogel may allow control of charge interaction with cell membrane and proteins.

Q: With VEVSVSVEV(d)PPTEVSVEVEV as the substance, how does the net charge read?
A: net negative charge
